According to patent US20060084597A2, “USE OF COMPOUNDS HAVING GIP ACTIVITY FOR THE TREATMENT OF DISORDERS ASSOCIATED WITH ABNORMAL LOSS OF CELLS AND/OR FOR THE TREATMENT OF OBESITY” (Eisai Co., Ltd., priority 2002, published 2006):

How the values were obtained:
[1] = test system: adult hippocampal progenitor cells; experiment: CyQUANT cell proliferation assay (DNA content); format: cell-based, rat; conditions: for cells in a well at the end of the experiment: around 6 x 10^3 cells seeded, control well without FGF around 1.5 x 10^5
Procedure: Proliferation assay. Hippocampal progenitor cells were seeded at 0.2 x 10^4 cells/cm^2 on 24-well plates in culture medium containing human FGF-2 (20ng/ml) and left to grow for 48 h. After a further 48 h of growth without FGF-2, cells were incubated with porcine GIP at different concentrations (Sigma), FGF-2 alone or a combination of both GIP (1 nM) and FGF-2 for 48 h. Cell proliferation assay was performed using the CyQUANT Cell Proliferation Kit (Molecular Probes, Eugene, OR) and a GENios microplate reader (TECAN Austria GmbH, Grödig, Austria) according to the instructions of the manufacturer.

[2] = test system: adult hippocampal progenitor cells; experiment: methyl-[3H]-thymidine incorporation assay; format: cell-based, rat; conditions: 24 h, n = 12
Procedure: Thymidin-assay. Hippocampal progenitor cells were seeded at 0.5 x 10^4 cells/cm^2 on 48-well plates in culture medium and left to grow for 48 h. The cells were then labeled with methyl-[^3H]-thymidine and incubated with GIP (1 nM) or FGF-2 (20ng/ml) for 24 h. Cells were lysed in 0.4 M NaOH, transferred to scint vials, mixed with 0.4 M HCl and assayed for DNA synthesis by scintillation spectrometry. The mean for each experiment was calculated from four different culture wells and each experiment was performed 12 times.

[3] = test system: adult hippocampal progenitor cells; experiment: Apop-Tag staining for apoptotic or dead cells; format: cell-based, rat; conditions: control 3.31 + 0.67%
Procedure: Apop-Tag. Hippocampal progenitor cells were seeded at 1 x 10^4 cells/cm^2 on glass coverslips and treated the same way as for the proliferation assay and incubated with GIP (1 nM) or FGF-2 (20 ng/ml). Cells were fixed and stained for apoptosis according to the Apop Tag kit user manual (Apop Tag S160 direct, Intergene Company, Purchase, NY, USA). A negative control without TdT-enzyme was included and positive controls with addition of H2O2 (100 µM and 1 mM) and DNase I (1 µg/ml) was included. In the last washing step the cells were incubated with the nuclear dye bisBenzimide (Hoechst 33258, Sigma) for 30 min. Apoptotic or dead cells were identified by green fluorescence in the nuclei and Hoechst nuclear dye was used to discriminate total number of cells. Three coverslips per experiment was stained from four different experiments. Positive cells was quantified by scoring the immunoreactivity of 1000–3000 cells systematically observed in 6 nonoverlapping fields in each coverslip.

[4] = test system: adult hippocampal progenitor cells; experiment: LDH release from dying cells; format: cell-based, rat; conditions: GIP 1 nM or FGF-2 20 ng/ml
Procedure: LDH-activity. Release of lactate dehydrogenase (LDH) from dying cells was measured using a routine photometric method (Dept. of Clinical Chemistry, Sahlgrenska University Hospital, Sweden). Cell culture medium was collected from culture wells seeded for the Apop Tag staining (see above). . The mean for each experiment was calculated from three different culture wells and each experiment was performed 4 times. The coefficient of variation for the assay was 1.7 % and the assay standard curve was linear for enzyme activities between 0.1–20 µkat/ dm^3.

[5] = test system: hippocampal progenitor cells in adult rat DG; experiment: Intracerebroventricular GIP infusion, BrdU-positive cell count in granule cell layer of dentate gyrus; format: in vivo; conditions: adult male SD rats, i.c.v. 1.92 nmol/day for 5 days
Procedure: Intracerebroventricular GIP infusion. Adult male SD rats (260-280 g; B&K Universal, Sweden) were intubated and ventilated with isoflurane in an O2/N2O mix (30:70). An infusion cannula connected to an osmotic pump (Alzet brain infusion kit II and Alzet 2001 osmotic pump, Alza Scientific Products, Palo Alto, CA) was placed in the 3rd cerebral ventricle (0.3 mm posterior from Bregma along the midline, 5 mm below skull surface). Each rat was infused (1 µl/hr) for 5 days with either GIP (1.92 nmol/day; n = 5) or vehicle (0.1 M PBS; n = 6) and sacrificed the last day. All animals received a single daily intraperitoneal injection of Bromodeoxyuridine (BrdU; 50 mg/kg of body weight; Boehringer Mannheim; Scandinavia AB, Bromma, Sweden).
Immunohistochemistry and cellcounting. Brains were sectioned and stained for BrdU using a primary mouse BrdU antibody (1:400, Boeringer Mannheim) and biotinylated horse anti-mouse IgG (1:125) secondary antibodies (Vector Laboratories, Burlingame, CA) as previously described^11. For each animal, the total number of BrdU-positive cells in the granule cell layer, including the subgranular layer, and their corresponding sample volume were determined in 12 immunoperoxidase-stained, 40-µm-thick coronal sections taken 240 µm apart. […] Results are expressed as BrdU-positive cells per sample volume.
Statistics. […] All values are expressed as the means ± SEM.

[6] = Effect on weight gain after intraventricular infusion in the brain; format: in vivo, rat; conditions: male Sprague-Dawley rats, 1.92 nmol/day intraventricularly, 5 days
Procedure: Rats (male Sprague-Dawley) were given either GIP (6 rats, 1.92 nmol/day) or phosphate buffered saline (PBS) as control-solution (7 rats), intraventricularly in the brain by osmotic mini-pumps. The rats were given substance during five days, and then sacrificed.
The weight of each rat was recorded and the total weight gain during the five days calculated.

Substance	increase in cell proliferation relative to control ([1]; FGF-2 20 ng/ml alone, 48 h, n = 4)	cells in a well at the end of the experiment [1]	increase in thymidin incorporation compared to control ([2]; FGF-2 20 ng/ml)	cell death ([3]; FGF-2 20 ng/ml)	extracellular level of released LDH compared with controls [4]	proliferative effect ([1]; GIP 0.1 pM, 48 h)	proliferative effect compared with FGF-2 ([1]; GIP 1 nM vs FGF-2 20 ng/ml)	increase in cell proliferation relative to control ([1]; GIP 1 nM, 48 h, n = 8)	rate of cell proliferation, dose-dependent ([1]; GIP doses from 1 pM to 0.1 µM, 48 h)	increase in thymidin incorporation compared to control ([2]; GIP 1 nM)	cell death compared with control ([3]; GIP 1 nM)	number of BrdU+ cells in the granule cell layer ([5]; n = 5, PBS 14986 ± 1831)	increase in BrdU-positive cells versus PBS-treated animals ([5]; p < 0.05)	weight gain as % of the weight gain seen in the PBS treated rats [6]	total weight gain during the five days ([6]; PBS 28.5g)
FGF-2: human fibroblast growth factor-2, a well-documented proliferative agent of these cells [reference compound]	112.3 ± 20%	~3 x 10^5 cells	60.1 ± 7.1%	0.96 + 0.21%	no statistical difference										
GIP: 42 amino acid gastric inhibitory polypeptide; porcine GIP (Sigma) used in the cell assays (YAEGTFISDYSIAMDKIRQQDFVNWLLAQKGKKSDWKHNITQ; Gastric inhibitory polypeptide synthetic; UniProt P01281 1-42, looked up)		~2.5 x 10^5 cells			no statistical difference	absent	slightly more than half	74.5 ± 14.4%	significant increases	32.4 ± 3.3%	not statistically different	27969 ± 5795 cells/mm^3	86%	63%	17.9 g
